Measured values: patent US6914045B2, “Glycopeptide antibiotics” (Wyeth Holdings Corporation, priority 2001, dated 2005)

Tests used:
Escherichia coli = assay: in vitro antibacterial evaluation, MIC by broth dilution; type: cell-based; settings: 18 hours at 35° C.
[1] = test system: Staphylococcus aureus-SMITH (GC 4543); assay: acute lethal infection in mice; type: in vivo; settings: acute lethal infection, female CD-1 mice, intraperitoneal challenge, intravenous 30 min. after infection, 7 day survival
Procedure, shortened: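 Female CD-1 mice (20+/−2 gm) were infected intraperitoneally with enough bacteria, suspended in trypticase soy broth or hog gastric mucin, to kill untreated controls within 24-48 hr. Compound in saline or 5% dextrose was given intravenously 30 min post-infection, five mice per dose. ED50 came from pooled 7 day survival of 3 tests.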

Streptococcus sp. = assay: in vitro antibacterial evaluation, MIC by broth dilution; type: cell-based; settings: broth dilution, 18 hours at 35° C.
Procedure, shortened: (§1)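 MIC, the lowest antibiotic concentration preventing growth, was read across 64-0.06 μg/mL with 5×10^5 CFU/mL inoculum. Method followed NCCLS M7-A2 broth dilution using Mueller-Hinton II; Gram-positive strains covered recent methicillin-, penicillin- and/or vancomycin-resistant clinical isolates.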

Staphylococcus sp. = assay: as above; type: cell-based; settings: broth dilution, 18 hours at 35° C.
Procedure, shortened: as §1

Enterococcus sp. = assay: as above; type: cell-based; settings: broth dilution, 18 hours at 35° C.
Procedure, shortened: as §1

[2] = inoculum 5×10^5 CFU/mL, strain ATCC 6301
[3] = inoculum 5×10^5 CFU/mL, strain GC 1894
[4] = inoculum 5×10^5 CFU/mL, strain GC 4563
[5] = inoculum 5×10^5 CFU/mL, strain GC 4564
[6] = inoculum 5×10^5 CFU/mL, strain GC 4565
[7] = inoculum 5×10^5 CFU/mL, strain ATCC 29212
[8] = inoculum 5×10^5 CFU/mL, strain GC 2242
[9] = inoculum 5×10^5 CFU/mL, strain GC 2243
[10] = inoculum 5×10^5 CFU/mL, strain GC 2691
[11] = inoculum 5×10^5 CFU/mL, strain GC 3059
[12] = inoculum 5×10^5 CFU/mL, strain GC 4552
[13] = inoculum 5×10^5 CFU/mL, strain GC 4553
[14] = inoculum 5×10^5 CFU/mL, strain GC 4554
[15] = inoculum 5×10^5 CFU/mL, strain GC 4556
[16] = inoculum 5×10^5 CFU/mL, strain GC 4557
[17] = inoculum 5×10^5 CFU/mL, strain GC 4558
[18] = inoculum 5×10^5 CFU/mL, strain GC 6189

CC(c1ccccc1)C1NC(=O)CNC(=O)C(CO)NC(=O)C(C(O)C2CNC(=N)N2C2OC(CO)C(O)C(O)C2O)NC(=O)C(C(O)C2CNC(=N)N2)NC(=O)C(Cc2ccc(OC3OC(CO)C(OC4OC(CO)C(OCc5ccc(OCc6ccccc6)cc5)C(O)C4O)C(O)C3O)cc2)NC1=O (stereo not drawn) [Example 231a, Cyclo[glycyl-β-methylphenylalanyl-O-[4-O-[4-O-[4-(phenylmethoxy)benzyl]hexopyranosyl]-hexopyranosyl]tyrosyl-3-(2-iminoimidazolidin-4-yl)seryl-3-(3-hexopyranosyl-2-iminoimidazolidin-4-yl)serylseryl]]
>0.12 to 0.25 µg/mL: MIC Coagulase Negative Staphylococcus (GC 4549) (Staphylococcus sp.)
0.5 to 2 µg/mL: MIC Escherichia coli (GC 4560) (Escherichia coli)
4 µg/mL: MIC Enterococcus faecalis (GC 4552) (Enterococcus sp.) | MIC Enterococcus faecalis (GC 4553) (Enterococcus sp.) | MIC Enterococcus faecalis (GC 4554) (Enterococcus sp.) | MIC Enterococcus faecalis (GC 4552) (Enterococcus sp.; [12]) | MIC Enterococcus faecalis (GC 4553) (Enterococcus sp.; [13]) | MIC Enterococcus faecalis (GC 4554) (Enterococcus sp.; [14])
0.06 mg/kg: median effective dose (ED50), Staphylococcus aureus-SMITH (GC 4543) [1]
0.5 µg/mL: MIC Coagulase Negative Staphylococcus (GC 4551) (Staphylococcus sp.) | MIC Coagulase Negative Staphylococcus (GC 6257) (Staphylococcus sp.) | MIC Coagulase Negative Staphylococcus (GC 4551) (Staphylococcus sp.; strain GC 4551) | MIC Coagulase Negative Staphylococcus (GC 6257) (Staphylococcus sp.; strain GC 6257)
<0.06 µg/mL: MIC Streptococcus agalactiae (GC 4564) (Streptococcus sp.) | MIC Streptococcus pneumoniae (ATCC 6301) (Streptococcus sp.) | MIC Streptococcus pneumoniae (GC 1894) (Streptococcus sp.) | MIC Streptococcus pneumoniae (GC 4565) (Streptococcus sp.) | MIC Streptococcus pyogenes (GC 4563) (Streptococcus sp.) | MIC Streptococcus pneumoniae (ATCC 6301) (Streptococcus sp.; [2]) | MIC Streptococcus pneumoniae (GC 1894) (Streptococcus sp.; [3]) | MIC Streptococcus pyogenes (GC 4563) (Streptococcus sp.; [4]) | MIC Streptococcus agalactiae (GC 4564) (Streptococcus sp.; [5]) | MIC Streptococcus pneumoniae (GC 4565) (Streptococcus sp.; [6])
0.5 to 1 µg/mL: MIC Staphylococcus aureus (GC 4542) (Staphylococcus sp.) | MIC Staphylococcus aureus (GC 4542) (Staphylococcus sp.; strain GC 4542)
<0.12 to 0.25 µg/mL: MIC Coagulase Negative Staphylococcus (GC 4549) (Staphylococcus sp.; strain GC 4549)
2 to 4 µg/mL: MIC Staphylococcus aureus (GC 4544) (Staphylococcus sp.) | MIC Staphylococcus aureus (GC 4544) (Staphylococcus sp.; strain GC 4544) | MIC Enterococcus faecalis (GC 2242) (Enterococcus sp.) | MIC Enterococcus faecium (GC 4556) (Enterococcus sp.) | MIC Enterococcus faecalis (GC 2242) (Enterococcus sp.; [8]) | MIC Enterococcus faecium (GC 4556) (Enterococcus sp.; [15])
0.12 to 0.25 µg/mL: MIC Coagulase Negative Staphylococcus (GC 4548) (Staphylococcus sp.) | MIC Coagulase Negative Staphylococcus (GC 4548) (Staphylococcus sp.; strain GC 4548)
1 to 2 µg/mL: MIC Staphylococcus aureus (ATCC 29213) (Staphylococcus sp.) | MIC Staphylococcus aureus (GC 1131) (Staphylococcus sp.) | MIC Staphylococcus aureus (GC 3053) (Staphylococcus sp.) | MIC Staphylococcus aureus (GC 4541) (Staphylococcus sp.) | MIC Staphylococcus aureus (GC 4545) (Staphylococcus sp.) | MIC Staphylococcus aureus (ATCC 29213) (Staphylococcus sp.; strain ATCC 29213) | MIC Staphylococcus aureus (GC 1131) (Staphylococcus sp.; strain GC 1131) | MIC Staphylococcus aureus (GC 3053) (Staphylococcus sp.; strain GC 3053) | MIC Staphylococcus aureus (GC 4541) (Staphylococcus sp.; strain GC 4541) | MIC Staphylococcus aureus (GC 4545) (Staphylococcus sp.; strain GC 4545) | MIC Enterococcus faecalis (GC 3059) (Enterococcus sp.) | MIC Enterococcus faecalis (GC 6189) (Enterococcus sp.) | MIC Enterococcus faecalis (GC 3059) (Enterococcus sp.; [11]) | MIC Enterococcus faecalis (GC 6189) (Enterococcus sp.; [18])
32 to 64 µg/mL: MIC Escherichia coli (ATCC 25922) (Escherichia coli)
2 µg/mL: MIC Enterococcus avium (GC 4558) (Enterococcus sp.) | MIC Enterococcus faecalis (ATCC 29212) (Enterococcus sp.) | MIC Enterococcus faecalis (GC 2691) (Enterococcus sp.) | MIC Enterococcus faecium (GC 2243) (Enterococcus sp.) | MIC Enterococcus faecium (GC 4557) (Enterococcus sp.) | MIC Enterococcus faecalis (ATCC 29212) (Enterococcus sp.; [7]) | MIC Enterococcus faecium (GC 2243) (Enterococcus sp.; [9]) | MIC Enterococcus faecalis (GC 2691) (Enterococcus sp.; [10]) | MIC Enterococcus faecium (GC 4557) (Enterococcus sp.; [16]) | MIC Enterococcus avium (GC 4558) (Enterococcus sp.; [17])
1 µg/mL: MIC Coagulase Negative Staphylococcus (GC 4547) (Staphylococcus sp.) | MIC Staphylococcus aureus (GC 3051) (Staphylococcus sp.) | MIC Staphylococcus aureus-SMITH (GC 4543) (Staphylococcus sp.) | MIC Staphylococcus haemolyticus (GC 4546) (Staphylococcus sp.) | MIC Staphylococcus aureus (GC 3051) (Staphylococcus sp.; strain GC 3051) | MIC Staphylococcus aureus-SMITH (GC 4543) (Staphylococcus sp.; strain GC 4543) | MIC Staphylococcus haemolyticus (GC 4546) (Staphylococcus sp.; strain GC 4546) | MIC Coagulase Negative Staphylococcus (GC 4547) (Staphylococcus sp.; strain GC 4547)
32 µg/mL: MIC Escherichia coli (GC 4559) (Escherichia coli)

CC(c1ccccc1)C1NC(=O)CNC(=O)C(CO)NC(=O)C(C(O)C2CNC(=N)N2C2OC(CO)C(O)C(O)C2O)NC(=O)C(C(O)C2CNC(=N)N2)NC(=O)C(Cc2ccc(OC3OC(CO)C(OC4OC(COCc5ccc(OCc6ccccc6)cc5)C(O)C(O)C4O)C(O)C3O)cc2)NC1=O (stereo not drawn) [Example 231, Cyclo[glycyl-β-methylphenylalanyl-O-[4-O-[6-O-[4-(phenylmethoxy)benzyl]hexopyranosyl]-hexopyranosyl]tyrosyl-3-(2-iminoimidazolidin-4-yl)seryl-3-(3-hexopyranosyl-2-iminoimidazolidin-4-yl)serylseryl]]
2 to 4 µg/mL: MIC Staphylococcus aureus (GC 1131) (Staphylococcus sp.) | MIC Staphylococcus aureus (GC 4542) (Staphylococcus sp.) | MIC Staphylococcus aureus (GC 4544) (Staphylococcus sp.) | MIC Staphylococcus aureus (GC 1131) (Staphylococcus sp.; strain GC 1131) | MIC Staphylococcus aureus (GC 4542) (Staphylococcus sp.; strain GC 4542) | MIC Staphylococcus aureus (GC 4544) (Staphylococcus sp.; strain GC 4544) | MIC Enterococcus avium (GC 4558) (Enterococcus sp.) | MIC Enterococcus faecalis (GC 2691) (Enterococcus sp.) | MIC Enterococcus faecalis (GC 3059) (Enterococcus sp.) | MIC Enterococcus faecalis (GC 6189) (Enterococcus sp.) | MIC Enterococcus faecalis (GC 2691) (Enterococcus sp.; [10]) | MIC Enterococcus faecalis (GC 3059) (Enterococcus sp.; [11]) | MIC Enterococcus avium (GC 4558) (Enterococcus sp.; [17]) | MIC Enterococcus faecalis (GC 6189) (Enterococcus sp.; [18])
0.25 to 0.5 µg/mL: MIC Coagulase Negative Staphylococcus (GC 4549) (Staphylococcus sp.) | MIC Coagulase Negative Staphylococcus (GC 4549) (Staphylococcus sp.; strain GC 4549)
1 to 2 µg/mL: MIC Coagulase Negative Staphylococcus (GC 4547) (Staphylococcus sp.) | MIC Staphylococcus aureus (GC 3051) (Staphylococcus sp.) | MIC Staphylococcus aureus (GC 3053) (Staphylococcus sp.) | MIC Staphylococcus aureus (GC 3051) (Staphylococcus sp.; strain GC 3051) | MIC Staphylococcus aureus (GC 3053) (Staphylococcus sp.; strain GC 3053) | MIC Coagulase Negative Staphylococcus (GC 4547) (Staphylococcus sp.; strain GC 4547) | MIC Enterococcus faecium (GC 4557) (Enterococcus sp.) | MIC Enterococcus faecium (GC 4557) (Enterococcus sp.; [16])
2 µg/mL: MIC Staphylococcus aureus-SMITH (GC 4543) (Staphylococcus sp.) | MIC Staphylococcus aureus-SMITH (GC 4543) (Staphylococcus sp.; strain GC 4543)
4 µg/mL: MIC Enterococcus faecalis (ATCC 29212) (Enterococcus sp.) | MIC Enterococcus faecalis (GC 2242) (Enterococcus sp.) | MIC Enterococcus faecalis (GC 4552) (Enterococcus sp.) | MIC Enterococcus faecalis (GC 4553) (Enterococcus sp.) | MIC Enterococcus faecalis (GC 4554) (Enterococcus sp.) | MIC Enterococcus faecium (GC 2243) (Enterococcus sp.) | MIC Enterococcus faecium (GC 4556) (Enterococcus sp.) | MIC Enterococcus faecalis (ATCC 29212) (Enterococcus sp.; [7]) | MIC Enterococcus faecalis (GC 2242) (Enterococcus sp.; [8]) | MIC Enterococcus faecium (GC 2243) (Enterococcus sp.; [9]) | MIC Enterococcus faecalis (GC 4552) (Enterococcus sp.; [12]) | MIC Enterococcus faecalis (GC 4553) (Enterococcus sp.; [13]) | MIC Enterococcus faecalis (GC 4554) (Enterococcus sp.; [14]) | MIC Enterococcus faecium (GC 4556) (Enterococcus sp.; [15])
1 µg/mL: MIC Coagulase Negative Staphylococcus (GC 4551) (Staphylococcus sp.) | MIC Coagulase Negative Staphylococcus (GC 4551) (Staphylococcus sp.; strain GC 4551)
<0.06 µg/mL: MIC Streptococcus agalactiae (GC 4564) (Streptococcus sp.) | MIC Streptococcus pneumoniae (ATCC 6301) (Streptococcus sp.) | MIC Streptococcus pneumoniae (GC 1894) (Streptococcus sp.) | MIC Streptococcus pneumoniae (GC 4565) (Streptococcus sp.) | MIC Streptococcus pyogenes (GC 4563) (Streptococcus sp.) | MIC Streptococcus pneumoniae (ATCC 6301) (Streptococcus sp.; [2]) | MIC Streptococcus pneumoniae (GC 1894) (Streptococcus sp.; [3]) | MIC Streptococcus pyogenes (GC 4563) (Streptococcus sp.; [4]) | MIC Streptococcus agalactiae (GC 4564) (Streptococcus sp.; [5]) | MIC Streptococcus pneumoniae (GC 4565) (Streptococcus sp.; [6])
0.25 mg/kg: median effective dose (ED50), Staphylococcus aureus-SMITH (GC 4543) [1]
1 to 4 µg/mL: MIC Staphylococcus aureus (ATCC 29213) (Staphylococcus sp.) | MIC Staphylococcus aureus (GC 4541) (Staphylococcus sp.) | MIC Staphylococcus aureus (GC 4545) (Staphylococcus sp.) | MIC Staphylococcus haemolyticus (GC 4546) (Staphylococcus sp.) | MIC Staphylococcus aureus (ATCC 29213) (Staphylococcus sp.; strain ATCC 29213) | MIC Staphylococcus aureus (GC 4541) (Staphylococcus sp.; strain GC 4541) | MIC Staphylococcus aureus (GC 4545) (Staphylococcus sp.; strain GC 4545) | MIC Staphylococcus haemolyticus (GC 4546) (Staphylococcus sp.; strain GC 4546)
0.5 to 1 µg/mL: MIC Coagulase Negative Staphylococcus (GC 4548) (Staphylococcus sp.) | MIC Coagulase Negative Staphylococcus (GC 6257) (Staphylococcus sp.) | MIC Coagulase Negative Staphylococcus (GC 4548) (Staphylococcus sp.; strain GC 4548) | MIC Coagulase Negative Staphylococcus (GC 6257) (Staphylococcus sp.; strain GC 6257)
0.5 to 2 µg/mL: MIC Escherichia coli (GC 4560) (Escherichia coli)
>128 µg/mL: MIC Escherichia coli (ATCC 25922) (Escherichia coli) | MIC Escherichia coli (GC 4559) (Escherichia coli)
